Source: patent US8975264B2, “Compound acting as a cannabinoid receptor-1 inhibitor” (Amorepacific Corporation, priority 2010, dated 2015)

molecular target: human CB1 (cannabinoid receptor 1) (Homo sapiens, UniProt P21554); assay: CB1 receptor inhibition effect: calcium ion influx assay (Fluo-4 NW) in Chem-1 cells after 1 μM R-(+)-WIN55212-2; assay type: cell-based; details: calcium ion influx in Chem-1 cells expressing human CB1, 1 μM R-(+)-WIN55212-2
Description: When cells in which the cannabinoid receptor 1 (CB1) is stably expressed are treated with a CB1 receptor agonist, the CB1 receptor is activated and influx of calcium ions into the cells increases. CB1 receptor inhibition effect of a test compound can be evaluated by measuring the degree of calcium influx inhibition after treating with the test compound.
First, Chem-1 cells (Chemicon International, #HTS019C) in which human CB1 cDNA is expressed stably were seeded onto a 96-well cell culture plate at a density of ˜50,000 cells/well and incubated overnight in a 5% CO2 incubator at 37° C. The next day, the culture medium was discarded and the cells were cautiously washed once using an assay buffer (HBSS containing 20 mM HEPES and 2.5 mM probenecid) with 200 μL/well. Calcium ion influx was measured using an assay kit (Fluo-4 NW calcium assay kit: Molecular Probes™, #F36206) according to the manufacturer's instructions. The compounds of Examples of desired concentration to be measured were comprised to 0.5% DMSO. For control, only 0.5% DMSO was used without the compounds of Examples. Reaction time was 10 minutes. After treating the Chem-1 cells stably expressing the CB1 receptor with 1 μM R-(+)-WIN55212-2 (Sigma, #W102), a CB1 receptor agonist, calcium ion (Ca^2+) flux induced thereby was measured for 80 seconds using Flex Station 3 (Molecular Device, USA).
The difference in calcium ion concentration of the cells treated with the compounds of Examples or those treated with 1 μM R-(+)-WIN55212-2 was obtained from the difference of the maximum and minimum values during the 80 seconds. Then, % inhibition of the compounds for the CB1 receptor was calculated using the following equation. % inhibition={1−(ΔRFUcompound−ΔRFUBlank)/(ΔRFUControl−ΔRFUBlank)}×100 [Equation]
ΔRFU: maximum relative fluorescence units−minimum relative fluorescence units
ΔRFUCompound: difference in maximum and minimum RFUs in the well where the compounds of Examples dissolved in DMSO to a final concentration of 0.5% and 1 μM R-(+)-WIN55212-2 dissolved in DMSO to a final concentration of 0.5% were added
ΔRFUBlank: difference in maximum and minimum RFUs in the well to which only 1% DMSO was added
ΔRFUControl: difference in maximum and minimum RFUs in the well where 0.5% DMSO and 1 μM R-(+)-WIN55212-2 dissolved in DMSO to a final concentration of 0.5% were added

human CB1 (cannabinoid receptor 1), sequence (P21554 whole entry): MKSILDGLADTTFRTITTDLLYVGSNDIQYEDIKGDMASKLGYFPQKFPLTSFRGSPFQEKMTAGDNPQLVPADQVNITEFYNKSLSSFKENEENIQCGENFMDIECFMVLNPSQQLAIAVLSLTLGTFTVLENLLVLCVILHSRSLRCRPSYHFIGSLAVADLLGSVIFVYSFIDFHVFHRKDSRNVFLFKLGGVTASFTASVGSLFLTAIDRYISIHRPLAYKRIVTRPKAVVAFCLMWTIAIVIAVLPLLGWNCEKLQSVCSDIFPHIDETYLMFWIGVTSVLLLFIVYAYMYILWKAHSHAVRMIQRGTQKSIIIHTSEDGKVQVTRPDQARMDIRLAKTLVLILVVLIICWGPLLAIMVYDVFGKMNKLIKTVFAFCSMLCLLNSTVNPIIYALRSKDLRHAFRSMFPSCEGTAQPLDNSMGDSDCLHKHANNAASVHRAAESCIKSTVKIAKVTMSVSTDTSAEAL

Question: Which IC50 does the source give for `COc1cccc(-c2cc(N3CCC[C@H]3CO)nc3c(-c4ccc(OC)c(F)c4)c(C)nn23)c1` [Example 186] here?
Answer: 220 nM

Question: How did the IC50 turn out when `COc1ccc(-c2c(C)nn3c(-c4ccc(F)c(F)c4)cc(N4CCC[C@H]4CO)nc23)cc1F` [Example 187] was run?
Answer: 390 nM

Question: `COc1cccc(-c2cc(N3CCC[C@H]3CO)nc3c(-c4ccc(F)cc4F)c(C)nn23)c1` [Example 190] was tested. Which IC50 did it give?
Answer: 180 nM

Question: How did the IC50 turn out when `Cc1nn2c(-c3ccc(F)c(Cl)c3)cc(N3CCC[C@H]3CO)nc2c1-c1ccc(F)cc1` [Example 192] was run?
Answer: 150 nM

Question: Which IC50 does the source give for `CCCOc1ccc(-c2c(C)nn3c(-c4ccc(C)cc4)cc(N4CCC[C@H]4CO)nc23)cc1` [Example 194] here?
Answer: 200 nM

Question: Which IC50 does the source give for `Cc1nn2c(-c3ccccc3)cc(N3CCC[C@H]3CO)nc2c1-c1ccccc1` [Example 195] here?
Answer: 780 nM

Question: For `OC[C@@H]1CCCN1c1cc(-c2ccc(F)cc2)n2nc(C3CC3)c(-c3ccc(Cl)cc3)c2n1` [Example 196, (S)-(1-(3-(4-chlorophenyl)-7-(4-fluorophenyl)-2-cyclopropylpyrazolo[1,5-a]pyrimidin-5-yl)pyrrolidin-2-yl)methanol], which IC50 is on record?
Answer: 140 nM

Question: Which IC50 does the source give for `OC[C@@H]1CCCN1c1cc(-c2cccc(F)c2)n2nc(C3CC3)c(-c3ccc(Cl)cc3)c2n1` [Example 197] here?
Answer: 150 nM

Question: How did the IC50 turn out when `CCc1nn2c(-c3ccc(F)cc3)cc(N3CCC[C@H]3CO)nc2c1-c1ccc(C)cc1` [Example 198, (S)-(1-(3-(4-methylphenyl)-7-(4-fluorophenyl)-2-ethylpyrazolo[1,5-a]pyrimidin-5-yl)pyrrolidin-2-yl)methanol] was run?
Answer: 50 nM

Question: How did the IC50 turn out when `CCc1nn2c(-c3cccc(F)c3)cc(N3CCC[C@H]3CO)nc2c1-c1ccc(C)cc1` [Example 200] was run?
Answer: 110 nM

Question: How did the IC50 turn out when `CCOCc1nn2c(-c3cccc(F)c3)cc(N3CCC[C@H]3CO)nc2c1-c1ccc(C)cc1` [Example 202] was run?
Answer: 5 nM

Question: For `CCOCc1nn2c(-c3cccc(OC)c3)cc(N3CCC[C@H]3CO)nc2c1-c1ccc(C)cc1` [Example 203], which IC50 is on record?
Answer: 30 nM

Question: How did the IC50 turn out when `CCOCc1nn2c(-c3cccc(C(F)(F)F)c3)cc(N3CCC[C@H]3CO)nc2c1-c1ccc(C)cc1` [Example 204] was run?
Answer: 6 nM

Question: With `CCOCc1nn2c(-c3ccc(F)cc3)cc(N3CCC[C@H]3CO)nc2c1-c1ccc(Cl)cc1` [Example 206] as the molecule, how does the IC50 read?
Answer: 8 nM

Question: Which IC50 does the source give for `CCOCc1nn2c(-c3cccc(C(F)(F)F)c3)cc(N3CCC[C@H]3CO)nc2c1-c1ccc(Cl)cc1` [Example 208] here?
Answer: 7 nM

Question: How did the IC50 turn out when `CCOCc1nn2c(-c3ccc(F)cc3)cc(N3CCC[C@H]3CO)nc2c1-c1ccc(OC)cc1` [Example 209] was run?
Answer: 53 nM

Question: `CCOCc1nn2c(-c3cccc(F)c3)cc(N3CCC[C@H]3CO)nc2c1-c1ccc(OC)cc1` [Example 210] was tested. Which IC50 did it give?
Answer: 170 nM

Question: Which IC50 does the source give for `CCOCc1nn2c(-c3cccc(C(F)(F)F)c3)cc(N3CCC[C@H]3CO)nc2c1-c1ccc(OC)cc1` [Example 212] here?
Answer: 26 nM

Question: `CCOCc1nn2c(-c3cccc(F)c3)cc(N3CCC[C@H]3CO)nc2c1-c1ccc2c(c1)OCO2` [Example 214] was tested. Which IC50 did it give?
Answer: 80 nM

Question: `CCOCc1nn2c(-c3cccc(Cl)c3)cc(N3CCC[C@H]3CO)nc2c1-c1ccc2c(c1)OCO2` [Example 217] was tested. Which IC50 did it give?
Answer: 150 nM

Question: For `CCOCc1nn2c(-c3cccc(C)c3)cc(N3CCC[C@H]3CO)nc2c1-c1ccc(OC)cc1` [Example 220], which IC50 is on record?
Answer: 30 nM

Question: For `COCc1nn2c(-c3cccc(C(F)(F)F)c3)cc(N3CCC[C@H]3CO)nc2c1-c1ccc(OC)cc1` [Example 221, (S)-{1-[2-methoxymethyl-7-(3-(trifluoromethyl)phenyl)-3-(4-methoxyphenyl)-pyrazolo[1,5-a]pyrimidin-5-yl]pyrrolidin-2-yl}methanol], which IC50 is on record?
Answer: 7 nM

Question: For `COCc1nn2c(-c3ccc(F)cc3)cc(N3CCC[C@H]3CO)nc2c1-c1ccc(OC)cc1` [Example 222], which IC50 is on record?
Answer: 8 nM

Question: Which IC50 does the source give for `COCc1nn2c(-c3cccc(F)c3)cc(N3CCC[C@H]3CO)nc2c1-c1ccc(OC)cc1` [Example 223] here?
Answer: 5 nM

Question: With `COCc1nn2c(-c3cccc(OC)c3)cc(N3CCC[C@H]3CO)nc2c1-c1ccc(OC)cc1` [Example 226] as the molecule, how does the IC50 read?
Answer: 50 nM

Question: `COCc1nn2c(-c3cccc(C)c3)cc(N3CCC[C@H]3CO)nc2c1-c1ccc(OC)cc1` [Example 227] was tested. Which IC50 did it give?
Answer: 48 nM
